Assay results taken from the NIST ThermoML archive (doi:10.1021/je800463k).
± gives the expanded uncertainty stated by the source.

Experiment: mn = molality of the nth substance listed, in mol/kg
Settings: 101 kPa, Liquid; for mass density: Pycnometric method; for electrical conductivity: Frequency=0.001 MHz, Alternating current cell with electrodes; for speed of sound: Frequency=2 MHz

O=[N+]([O-])[O-].O=[N+]([O-])[O-].[Mg+2] [magnesium nitrate] + CO
Settings	electrical conductivity [S/m]	mass density [kg/m3]	speed of sound [m/s]	viscosity [mPa·s]
301.25 K, m1 = 0.4024	–	827.04 ± 16	–	–
301.3 K, m1 = 0.0082	–	785.69 ± 0.79	–	–
301.4 K, m1 = 0.2776	–	814.59 ± 12	–	–
301.4 K, m1 = 1.71	–	952.09 ± 57	–	–
302.05 K, m1 = 0.0545	–	790.26 ± 2.4	–	–
302.2 K, m1 = 0.4555	–	830.9 ± 18	–	–
302.25 K, m1 = 0.782	–	868.46 ± 29	–	–
302.45 K, m1 = 0.1047	–	796.51 ± 4.2	–	–
302.55 K, m1 = 1.004	–	883.47 ± 37	–	–
302.7 K, m1 = 0.6276	–	848.25 ± 32	–	–
302.7 K, m1 = 1.259	–	910.86 ± 54	–	–
302.85 K, m1 = 1.875	–	961.69 ± 57	–	–
303.15 K, m1 = 0.0082	0.1462 ± 0.0001	783.99 ± 0.96	1091.9 ± 6.4	0.5215 ± 0.029
303.15 K, m1 = 0.0545	0.4108 ± 0.0001	–	1098.1 ± 6.4	0.5545 ± 0.03
303.15 K, m1 = 0.0667	0.4481 ± 0.0001	–	1096.9 ± 6.4	0.5716 ± 0.031
303.15 K, m1 = 0.1047	0.5889 ± 0.0001	–	1102.5 ± 6.4	0.5909 ± 0.032
303.15 K, m1 = 0.2776	1.123 ± 0.001	–	1121.5 ± 6.5	0.6836 ± 0.036
303.15 K, m1 = 0.4024	1.41 ± 0.001	–	1132.5 ± 6.6	0.7943 ± 0.041
303.15 K, m1 = 0.4555	1.489 ± 0.001	–	1139.1 ± 6.6	0.8264 ± 0.042
303.15 K, m1 = 0.6276	1.775 ± 0.001	–	1155.5 ± 6.7	1.05 ± 0.052
303.15 K, m1 = 0.782	1.979 ± 0.001	–	1172.9 ± 6.7	1.177 ± 0.057
303.15 K, m1 = 0.881	2.037 ± 0.001	–	1179.3 ± 6.7	1.184 ± 0.057
303.15 K, m1 = 0.9116	2.054 ± 0.001	–	1182.3 ± 6.8	1.245 ± 0.06
303.15 K, m1 = 1.004	2.136 ± 0.001	–	1196.9 ± 6.8	1.354 ± 0.065
303.15 K, m1 = 1.259	2.213 ± 0.001	–	1219.1 ± 6.9	1.875 ± 0.087
303.15 K, m1 = 1.492	2.223 ± 0.001	–	1243 ± 7	2.267 ± 0.1
303.15 K, m1 = 1.71	2.246 ± 0.001	–	1263.7 ± 7.1	2.73 ± 0.12
303.15 K, m1 = 1.875	2.217 ± 0.001	–	1272.7 ± 7.1	3.138 ± 0.14
303.25 K, m1 = 0.4024	–	825.26 ± 16	–	–
303.4 K, m1 = 0.2776	–	812.83 ± 12	–	–
303.4 K, m1 = 1.492	–	932.03 ± 49	–	–
303.75 K, m1 = 0.0545	–	788.57 ± 2.5	–	–
303.85 K, m1 = 0.881	–	868.76 ± 6.8	–	–
304 K, m1 = 0.0082	–	782.31 ± 1.4	–	–
304.1 K, m1 = 0.782	–	866.62 ± 5.9	–	–
304.2 K, m1 = 0.4555	–	829.11 ± 18	–	–
304.25 K, m1 = 0.1047	–	794.8 ± 5.5	–	–
304.35 K, m1 = 0.0667	–	789.8 ± 3.6	–	–
304.65 K, m1 = 0.6276	–	846.53 ± 24	–	–
304.65 K, m1 = 1.004	–	881.56 ± 40	–	–
304.8 K, m1 = 1.259	–	908.91 ± 48	–	–
304.9 K, m1 = 1.71	–	949.01 ± 61	–	–
304.95 K, m1 = 0.0082	–	780.67 ± 1.2	–	–
305.05 K, m1 = 0.4024	–	823.53 ± 16	–	–
305.15 K, m1 = 0.0667	–	789.04 ± 3.1	–	–
305.25 K, m1 = 0.2776	–	811.08 ± 11	–	–
305.55 K, m1 = 0.0545	–	786.97 ± 2.4	–	–
306 K, m1 = 1.875	–	958.63 ± 57	–	–
306.6 K, m1 = 0.0082	–	778.26 ± 0.98	–	–
306.7 K, m1 = 1.492	–	929.13 ± 56	–	–
306.75 K, m1 = 1.004	–	879.67 ± 44	–	–
306.8 K, m1 = 0.4024	–	821.82 ± 15	–	–
306.8 K, m1 = 0.881	–	866.06 ± 39	–	–
306.85 K, m1 = 0.0667	–	787.33 ± 3.6	–	–
306.85 K, m1 = 0.1047	–	792.32 ± 5.5	–	–
306.9 K, m1 = 1.259	–	907.07 ± 51	–	–
306.95 K, m1 = 0.4555	–	826.52 ± 17	–	–
307.1 K, m1 = 1.71	–	947.08 ± 57	–	–
307.15 K, m1 = 0.2776	–	809.38 ± 11	–	–
307.15 K, m1 = 0.782	–	863.84 ± 6.1	–	–
307.25 K, m1 = 0.0545	–	785.27 ± 2.4	–	–
307.55 K, m1 = 0.6276	–	843.81 ± 32	–	–
308.15 K, m1 = 0.0082	0.1518 ± 0.0001	–	1075.4 ± 6.3	0.486 ± 0.027
308.15 K, m1 = 0.0545	0.4242 ± 0.0001	–	1082.1 ± 6.4	0.5169 ± 0.029
308.15 K, m1 = 0.0667	0.4649 ± 0.0001	–	1083.3 ± 6.4	0.5321 ± 0.029
308.15 K, m1 = 0.1047	0.6114 ± 0.0001	–	1086 ± 6.4	0.5501 ± 0.03
308.15 K, m1 = 0.2776	1.172 ± 0.001	–	1106.2 ± 6.5	0.6334 ± 0.034
308.15 K, m1 = 0.4024	1.476 ± 0.001	–	1116.1 ± 6.5	0.7332 ± 0.038
308.15 K, m1 = 0.4555	1.559 ± 0.001	–	1122.4 ± 6.5	0.7633 ± 0.039
308.15 K, m1 = 0.6276	1.867 ± 0.001	–	1139.5 ± 6.6	0.9449 ± 0.047
308.15 K, m1 = 0.782	2.089 ± 0.001	–	1157.4 ± 6.7	1.077 ± 0.053
308.15 K, m1 = 0.881	2.154 ± 0.001	–	1163.7 ± 6.7	1.083 ± 0.053
308.15 K, m1 = 0.9116	2.173 ± 0.001	–	1165.8 ± 6.7	1.135 ± 0.055
308.15 K, m1 = 1.004	2.266 ± 0.001	–	1180.7 ± 6.8	1.233 ± 0.06
308.15 K, m1 = 1.259	2.359 ± 0.001	–	1200 ± 6.8	1.694 ± 0.079
308.15 K, m1 = 1.492	2.396 ± 0.001	–	1227 ± 6.9	2.044 ± 0.094
308.15 K, m1 = 1.71	2.421 ± 0.001	–	1247.8 ± 7	2.433 ± 0.11
308.15 K, m1 = 1.875	2.395 ± 0.001	–	1256.6 ± 7.1	2.765 ± 0.12
308.35 K, m1 = 1.875	–	956.57 ± 57	–	–
308.55 K, m1 = 0.0667	–	785.71 ± 2.9	–	–
308.6 K, m1 = 0.4024	–	820.2 ± 15	–	–
